By melting point is commonly meant the temperature, or range, at which the solid turns liquid. What is called viability is a read-out of living cells in per cent, often relative to untreated cells. One may read the IC50 as the point on the concentration scale where inhibition reaches its midpoint.

“Also recorded” adds a separate entry of the source.

A short description of data set [1]: Cell viability of BV-2 cells (MTT assay). Format: cell-based. On the set-up: concentration or dose not given beside the values. The conditions noted are these: mouse, mean ± SD, n = 3. The protocol:
(§1) NO production was assessed indirectly using the Griess reaction by measuring nitrite concentration in a culture medium. BV-2 cells were cultured in Dulbecco’s Modified Eagle Medium, supplemented with 10% FBS, 100 units/mL of penicillin, and 100 μg/mL of streptomycin. These cells were seeded in 96-well plates at a density of 8 × 10^4 cells/well and incubated for 24 h. Post incubation, they were exposed to 100 ng/mL of LPS alongside different compound concentrations for 48 h. A mixture of 100 μL culture supernatant and Griess reagent was left at room temperature for 10 min, with absorbance later read at 570 nm. L-NMMA served as the positive control. Cell viability was determined using the MTT assay, and experiments were conducted in triplicate. The IC50 for NO production inhibition was computed using GraphPad Prism 7.00 software.
For orientation: Tetrazolium assays rely on reduction of a dye to a coloured formazan, in cell work by metabolically active cells.

Data set [2] concerns NO production induced by LPS in BV-2 cells. Kind of data set: Inhibition of LPS-induced NO production in BV-2 cells (Griess method). The conditions noted are these: for IC50: BV-2 cells, 100 ng/mL LPS, 48 h, Griess reaction, mean ± SD, n = 3; for Suppression of NO generation (result in words): LPS-triggered BV-2 cells, Griess method. Format: cell-based. As to the method:
To assess the potential capabilities of all modified products in counteracting neuroinflammation, we measured their suppressive effects on NO generation within LPS-triggered BV-2 cells using the Griess method.
as §1

Regarding `CC1C(O)CC23CCC4(C)C5(C)CCC6C(C)(C)C(=O)CCC6(C)C5C5OC5C4(OC2=O)C3C1C` (stereo not drawn) [Compound 13, 3-oxo-21β-hydroxyl-11β,12β-epoxyl-urs-13β,28β-lactone], the melting point lay in the range of 257 to 263 °C. For the same compound, the viability at 48 h in data set [1] is 103 ± 3.59%. In addition, the 50% inhibitory concentration (IC50) in data set [2] (Mus musculus, BV-2, 48 h) turned out to be 15.2 ± 3.07 µM.

For `C[C@H]1[C@H](C)C2C3=CCC4[C@@]5(C)CCC(=O)C(C)(C)C5C[C@H](O)[C@@]4(C)[C@]3(C)CC[C@@]2(C(=O)O)C[C@@H]1O` (stereo partly drawn) [Compound 3, 3-oxo-7β,21β-dihydroxy-12-en-28-oic acid], the viability at 48 h in data set [1] was 100 ± 3.92%. Also, the IC50 in data set [2] (Mus musculus, BV-2, 48 h) is 20.9 ± 2.13 µM.

`C[C@@H]1CC[C@]2(C(=O)O[C@@H]3O[C@H](CO)[C@@H](O)[C@H](O)[C@H]3O)CC[C@]3(C)C(=CCC4[C@@]5(C)CCC(=O)C(C)(C)C5CC[C@]43C)C2[C@H]1C` (stereo partly drawn) [Compound 12, ursonic acid-28-O-β-D-glucopyranosyl ester]: the viability at 48 h in data set [1] turned out to be 98.2 ± 4.37%. In data set [2] (Mus musculus, BV-2, 48 h), this compound had an IC50 of 31.1 ± 3.98 µM.

In turn, `CC1C(O)CC23CCC4(C)C5(C)CCC6C(C)(C)C(=O)CC(O)C6(C)C5C5OC5C4(OC2=O)C3C1C` (stereo not drawn) [Compound 14, 3-oxo-1β,21β-dihydroxyl-11β,12β-epoxyl-urs-13β,28β-lactone] displayed a melting point of 278 to 280 °C. The viability at 48 h in data set [1] was found to be 104 ± 4.92%. The compound further returned an IC50 in data set [2] (Mus musculus, BV-2, 48 h) of 22.6 ± 3.44 µM.

As to `CC1=C2C(C3OC3C34OC(=O)C5(CCC23C)CC(O)C(C)C(C)C54)C2(C)CCC(=O)C(C)(C)C2C1` (stereo not drawn) [Compound 19, 3-oxo-21β-hydroxyl-7-methyl-11β,12β-epoxyl-7-ene-26-norurs-13β,28β-lactone], the melting point lay in the range of 282 to 284 °C. Further, in data set [1], the viability at 48 h is 103 ± 3.03%. In addition, the IC50 in data set [2] turned out to be 5.25 ± 3.19 µM. In data set [2] (Mus musculus, BV-2, 48 h), this compound registered an IC50 of 5.3 µM.

`COC1C=C2C3C(C)C(C)C(O)CC3(C(=O)O)CCC2(C)C2(C)CCC3C(C)(C)C(=O)CCC3(C)C12` (stereo not drawn) [Compound 7, 3-oxo-11α-methoxy-21β-hydroxy-urs-12-en-28-oic acid] came in with a melting point of 268 to 271 °C. Further, in data set [1], the viability at 48 h is 99.2 ± 3.72%. In data set [2] (Mus musculus, BV-2, 48 h), the IC50 worked out at 11.6 ± 2.01 µM.

Compound `CC1C(O)CC23CCC4(C)C(C=CC5C6(C)CCC(=O)C(C)(C)C6CC(O)C54C)(OC2=O)C3C1C` (stereo not drawn) [Compound 9, 3-oxo-7β,21β-dihydroxy-urs-11-en-13β,28β-lactone] came in with a melting point of 261 to 265 °C. For the same compound, the viability at 48 h in data set [1] turned out to be 104 ± 3.86%. The “Suppression of NO generation (result in words)” value (“Suppression of NO generation” for short) in data set [2] is reported as “did not showcase any suppression capabilities; also recorded: did not exhibit any inhibitory activities”. This compound returned an IC50 in data set [2] (Mus musculus, BV-2, 48 h) of over 100 µM.

In turn, `C[C@H]1[C@H](C)C2[C@@]3(CC[C@@]4(C)[C@@]5(C)C([C@H]6O[C@H]6[C@]24OC3=O)[C@@]2(C)CCC(=O)C(C)(C)C2C[C@@H]5O)C[C@@H]1O` (stereo partly drawn) [Compound 16, 3-oxo-7β,21β-dihydroxyl-11β,12β-epoxyl-urs-13β,28β-lactone] returned a melting point of 268 to 273 °C. In data set [1], the viability at 48 h was found to be 97.8 ± 4.75%. This compound yielded an IC50 in data set [2] of 6.86 ± 3.52 µM. Besides, in data set [2] (Mus musculus, BV-2, 48 h), it took 6.9 µM to reach half-maximal inhibition (IC50).

Regarding `C[C@@H]1CC[C@]2(C(=O)O)CC[C@]3(C)C(=CCC4[C@@]5(C)CCC(=O)C(C)(C)C5CC[C@]43C)C2[C@]1(C)O` (stereo partly drawn) [Compound 11, 3-oxo-19α-hydroxy-12-en-urs-28-oic acid], the viability at 48 h in data set [1] came to 101 ± 3.42%. It took 42.5 ± 3.7 µM to reach half-maximal inhibition in data set [2] (Mus musculus, BV-2, 48 h) (IC50).

As to `CC1C(O)CC23CCC4(C)C5(C)CCC6C(C)(C)C(=O)CCC6(C)C5C=CC4(OC2=O)C3C1C` (stereo not drawn) [Compound 8, 3-oxo-21β-hydroxy-urs-11-en-13β,28β-lactone], the melting point lay within 245 to 247 °C. Also, the viability at 48 h in data set [1] was found to be 102 ± 3.54%. For the same compound, the “Suppression of NO generation” value in data set [2] is listed as “did not showcase any suppression capabilities; also recorded: did not exhibit any inhibitory activities”. Further, in data set [2] (Mus musculus, BV-2, 48 h), the IC50 was over 100 µM.

As to `C[C@@H]1C(=O)C[C@]2(C(=O)O)CC[C@]3(C)C(=CCC4[C@@]5(C)CCC(=O)C(C)(C)C5CC[C@]43C)C2[C@H]1C` (stereo partly shown) [Compound 4, 3,21-dioxo-urs-12-en-28-oic acid], the viability at 48 h in data set [1] was found to be 104 ± 3.18%. For the same compound, in data set [2], the “Suppression of NO generation” value is recorded as “did not showcase any suppression capabilities”. In data set [2] (Mus musculus, BV-2, 48 h), the IC50 was over 100 µM.

`CC1C(O)CC23CCC4(C)C5(C)CCC6C(C)(C)C(=O)C=CC6(C)C5C5OC5C4(OC2=O)C3C1C` (stereo not drawn) [Compound 18, 3-oxo-21β-hydroxyl-11β,12β-epoxyl-urs-1-ene-13β,28β-lactone]: the melting point was 242 to 245 °C. Further, the viability at 48 h in data set [1] turned out to be 103 ± 3.26%. The IC50 in data set [2] (Mus musculus, BV-2, 48 h) worked out at 17.4 ± 2.72 µM.

For `[H]/N=C(/NC)NCCC[C@H](N)C(=O)O` [L-NMMA, reference compound], in data set [1], the viability at 48 h came to 101 ± 4.36%. This compound gave an IC50 in data set [2] (Mus musculus, BV-2, 48 h) of 28.2 ± 2.97 µM.

With `CC1C(O)CC23CCC4(C)C5(C)C(O)CC6C(C)(C)C(=O)CCC6(C)C5C5OC5C4(OC2=O)C3C1C` (stereo not drawn) [Compound 15, 3-oxo-7α,21β-dihydroxyl-11β,12β-epoxyl-urs-13β,28β-lactone], the melting point lay in the range of 270 to 274 °C. Besides, the viability at 48 h in data set [1] came to 102 ± 3.18%. Also, in data set [2] (Mus musculus, BV-2, 48 h), the IC50 amounted to 36.6 ± 2.33 µM.

`CC1C(=O)CC2(C(=O)O)CCC3(C)C(=CCC4C5(C)CCC(=O)C(C)(C)C5CC(O)C43C)C2C1C` (stereo not drawn) [Compound 5, 3,21-dioxo-7β-hydroxy-urs-12-en-28-oic acid]: the melting point lay within 251 to 254 °C. In addition, the viability at 48 h in data set [1] is 101 ± 4.11%. It took 52.8 ± 3.34 µM to reach half-maximal inhibition in data set [2] (Mus musculus, BV-2, 48 h) (IC50).

Compound `COC1=CCC2(C)C(CCC3(C)C2CC=C2C4C(C)C(C)CCC4(C(=O)O)CCC23C)C1(C)C` (stereo not shown) [Compound 10, 3-methoxy-urs-2,12-dien-28-oic acid] registered a melting point of 284 to 288 °C. Besides, in data set [1], the viability at 48 h is 104 ± 4.05%. In data set [2], this compound displayed an IC50 of 8.23 ± 2.61 µM. The compound further displayed an IC50 in data set [2] (Mus musculus, BV-2, 48 h) of 8.2 µM.

Turning to `C[C@H]1[C@H](C)C2C3=CCC4[C@@]5(C)CCC(=O)C(C)(C)C5CC[C@@]4(C)[C@]3(C)CC[C@@]2(C(=O)O)C[C@@H]1O` (stereo partly drawn) [Compound 2, 3-oxo-21β-hydroxy-12-en-urs-28-oic acid], the viability at 48 h in data set [1] turned out to be 101 ± 2.45%. Also, in data set [2] (Mus musculus, BV-2, 48 h), the concentration for half-maximal inhibition (IC50) was determined as 38.2 ± 4.09 µM.

For `C[C@@H]1CC[C@]2(C(=O)O)CC[C@]3(C)C(=CC(=O)C4[C@@]5(C)CCC(=O)C(C)(C)C5CC[C@]43C)C2[C@H]1C` (stereo partly shown) [Compound 6, 3,11-dioxo-12-en-urs-28-oic acid], the viability at 48 h in data set [1] turned out to be 105 ± 4.23%. For the same compound, inhibition in data set [2] (Mus musculus, BV-2, 48 h) was half-maximal at 50.2 ± 3.16 µM (IC50).

Consider `C[C@H]1[C@H](C)CC[C@]2(C(=O)O)CC[C@]3(C)C(=CC[C@@H]4[C@@]5(C)CCC(=O)C(C)(C)[C@@H]5CC[C@]43C)[C@H]12` [Compound 1, Ursonic acid], for which the viability at 48 h in data set [1] came out at 98.8 ± 3.61%. The compound also returned an IC50 in data set [2] (Mus musculus, BV-2, 48 h) of 84.7 ± 3.22 µM.

For the compound `CC1C(=O)CC23CCC4(C)C5(C)C(O)CC6C(C)(C)C(=O)CCC6(C)C5C5OC5C4(OC2=O)C3C1C` (stereo not drawn) [Compound 17, 3,21-dioxo-7β-hydroxyl-11β,12β-epoxyl-urs-13β,28β-lactone], the melting point was in the range of 247 to 249 °C. The viability at 48 h in data set [1] is 100 ± 3.54%. For the same compound, the IC50 in data set [2] (Mus musculus, BV-2, 48 h) is 40.8 ± 3.26 µM.

These data come from article PMC10745867, “Biotransformation of Ursonic Acid by Aspergillus ochraceus and Aspergillus oryzae to Discover Anti-Neuroinflammatory Derivatives” (Molecules, 2023).
